Source: PMC8800105 (The Journal of Biological Chemistry, 2021)

Target: TRPA1 (Homo sapiens, UniProt O75762)
Assay: whole-cell patch clamp in HEK293
Format: cell-based

TRPA1, sequence (O75762 whole entry): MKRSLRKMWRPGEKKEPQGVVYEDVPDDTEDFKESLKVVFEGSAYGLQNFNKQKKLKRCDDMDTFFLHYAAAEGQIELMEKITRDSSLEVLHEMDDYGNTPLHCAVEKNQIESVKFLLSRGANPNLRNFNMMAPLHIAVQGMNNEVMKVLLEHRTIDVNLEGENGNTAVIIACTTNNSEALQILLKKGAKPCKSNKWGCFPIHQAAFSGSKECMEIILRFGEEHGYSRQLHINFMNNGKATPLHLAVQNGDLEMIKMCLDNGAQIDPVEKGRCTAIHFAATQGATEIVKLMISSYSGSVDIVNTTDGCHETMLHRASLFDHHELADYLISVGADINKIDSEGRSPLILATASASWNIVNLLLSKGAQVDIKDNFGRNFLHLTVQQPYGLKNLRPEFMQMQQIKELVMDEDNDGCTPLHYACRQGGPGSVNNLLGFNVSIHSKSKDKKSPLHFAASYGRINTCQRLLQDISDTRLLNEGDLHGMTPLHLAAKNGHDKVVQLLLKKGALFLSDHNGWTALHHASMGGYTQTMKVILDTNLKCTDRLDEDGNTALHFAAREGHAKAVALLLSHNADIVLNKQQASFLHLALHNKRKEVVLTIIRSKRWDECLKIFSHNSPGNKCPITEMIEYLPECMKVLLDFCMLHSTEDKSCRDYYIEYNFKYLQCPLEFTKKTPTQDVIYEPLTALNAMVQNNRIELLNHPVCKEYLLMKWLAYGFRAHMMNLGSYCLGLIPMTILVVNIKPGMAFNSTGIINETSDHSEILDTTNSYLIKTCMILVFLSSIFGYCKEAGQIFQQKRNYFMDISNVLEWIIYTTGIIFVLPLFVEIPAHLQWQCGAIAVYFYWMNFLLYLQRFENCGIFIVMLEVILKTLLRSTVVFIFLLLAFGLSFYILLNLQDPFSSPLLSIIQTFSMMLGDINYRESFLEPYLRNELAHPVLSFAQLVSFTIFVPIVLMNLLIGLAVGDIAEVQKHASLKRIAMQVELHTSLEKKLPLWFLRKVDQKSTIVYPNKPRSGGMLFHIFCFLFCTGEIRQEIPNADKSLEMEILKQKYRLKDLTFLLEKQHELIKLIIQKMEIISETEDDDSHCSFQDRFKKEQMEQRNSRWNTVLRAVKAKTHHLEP

| Structure (SMILES) | EC50 |
| --- | --- |
| O=[N+]([O-])c1ccc(Cl)c([N+](=O)[O-])c1 [DNCB] | 42.4 ± 20.9 µM |
| O=[N+]([O-])c1ccc(F)c([N+](=O)[O-])c1 [DNFB] | 2.3 ± 0.7 µM |
